The data set deals with human PKK mRNA. In words: Antisense inhibition of human PKK mRNA in HepaRG cells, 5,000 nM (Example 2). It counts as cell-based. The procedure, abridged:
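qRT-PCR (RTS3454) read-out, RIBOGREEN-normalized; % inhibition vs untreated cells. HepaRG, 20,000 cells/well, electroporation, 5,000 nM ASO, ~24 h.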

[1] abbreviates: Table 13, human PKK mRNA in HepaRG cells, 5-10-5 gapmers.
Setting [2] is: HepaRG cells, electroporation with 5,000 nM antisense oligonucleotide, approximately 24 hours, PKK mRNA by RT-PCR (RTS3454), relative to untreated control cells, Table 5 experiment.
The mark [3] stands for this setting: human PKK mRNA, HepaRG cells, 5-10-5 motif oligonucleotides targeting SEQ ID NO: 1 and 10.
Setting [4] is: Table 8, HepaRG cells, electroporation with 5,000 nM antisense oligonucleotide, approx. 24 hours, PKK mRNA by RT-PCR (RTS3454), relative to untreated control cells.
[5] abbreviates: human PKK mRNA, HepaRG cells, 5,000 nM antisense oligonucleotide, Table 18.
Setting [6] is: HepaRG cells, 5,000 nM antisense oligonucleotide, 5-10-5 gapmers, Table 16.
Where [7] appears, read: HepaRG cells, electroporation, 5,000 nM antisense oligonucleotide, approx. 24 hours, primer probe set RTS3454, relative to untreated control cells, Table 12.
Where [8] appears, read: HepaRG cells, electroporation, 5,000 nM antisense oligonucleotide, approx. 24 hours, primer probe set RTS3454, relative to untreated control cells, Table 11.
[9] abbreviates: Table 9 experiment, HepaRG cells, 20,000 cells per well, electroporation with 5,000 nM antisense oligonucleotide, approx. 24 hours, PKK mRNA by RT-PCR (RTS3454), relative to untreated control cells.
Setting [10] is: Table 10 experiment, HepaRG cells, 20,000 cells per well, electroporation with 5,000 nM antisense oligonucleotide, approx. 24 hours, PKK mRNA by RT-PCR (RTS3454), relative to untreated control cells.
[11] abbreviates: HepaRG cells, electroporation with 5,000 nM antisense oligonucleotide, approximately 24 hours, PKK mRNA by RT-PCR (RTS3454), relative to untreated control cells, Table 6 experiment.
[12] abbreviates: HepaRG cells, 5,000 nM antisense oligonucleotide, 5-10-5 gapmers, Table 17.

This note sets out measurements from patent US11840686B2, “Modulation of prekallikrein (PKK) expression” (Ionis Pharmaceuticals, Inc., priority 2013, dated 2023).

Strand notation (5' to 3'): a small letter for the sugar, then the base; units joined by * are phosphorothioate-linked, units joined directly phosphodiester-linked; [ ] holds rarer units or linkages, { } end groups; capitals alone tell only the bases. e = 2'-O-(2-methoxyethyl) (MOE); [5mC] = 5-methylcytosine; d = 2'-deoxy (DNA)

For “546747 (e[5mC]*eT*e[5mC]*e[5mC]*e[5mC]*dA*d[5mC]*dT*dG*dA*d[5mC]*dT*dG*dA*d[5mC]*eT*eA*e[5mC]*eT*e[5mC]; antisense) [compound 546747]”, the “% inhibition” value under setting [1] stood at 64%.
As for “547297 (antisense eT*eG*eG*eA*eA*dT*dG*dT*dG*d[5mC]*dA*d[5mC]*d[5mC]*dT*d[5mC]*eA*eT*e[5mC]*eT*eG) [compound 547297]”, the “% inhibition” value under setting [2] was 84%.
Take “546904 (eT*e[5mC]*e[5mC]*eT*eA*dT*dA*dT*d[5mC]*dA*d[5mC]*dT*dG*dT*dA*e[5mC]*e[5mC]*eT*eA*eT; antisense) [compound 546904]”: the “% inhibition” value under setting [3] is recorded as 80%.
As for “547442 (antisense eT*eG*eG*eT*eG*dT*d[5mC]*d[5mC]*dT*dA*dT*dG*dA*dG*dT*eG*eA*e[5mC]*e[5mC]*e[5mC]) [compound 547442]”, the “% inhibition” value under setting [4] is 42%.
As for “547652 (eT*e[5mC]*eA*e[5mC]*eT*dG*dT*dA*d[5mC]*d[5mC]*dT*dA*dT*dA*dA*e[5mC]*eA*eG*eT*eA; antisense) [compound 547652]”, the “% inhibition” value under setting [3] is 59%.
In the case of “548769 (antisense eA*eG*eT*eA*dT*d[5mC]*dA*d[5mC]*dT*dG*dT*d[5mC]*d[5mC]*eT*eA*eT*eA) [compound 548769]”, under setting [5], the “% inhibition” value turned out to be 64%.
On to “547703 (antisense e[5mC]*eA*eA*e[5mC]*eA*dT*d[5mC]*dA*d[5mC]*dT*dG*dT*dA*d[5mC]*d[5mC]*eT*eA*eT*eA*eA) [compound 547703]”, for which the “% inhibition” value under setting [6] worked out at 25%.
On to “547690 (antisense e[5mC]*eT*eG*eT*eA*dA*d[5mC]*dA*dA*dT*dA*dT*d[5mC]*dA*d[5mC]*eT*eG*eT*e[5mC]*e[5mC]) [compound 547690]”, for which the “% inhibition” value under setting [6] is on record as 76%.
On to “546411 (eA*eT*eA*eT*eT*dG*dA*d[5mC]*dT*dT*dT*dG*dG*dG*dT*eT*eT*e[5mC]*eT*eG; antisense) [compound 546411]”, for which, under setting [7], the “% inhibition” value turned out to be 56%.
As to “547498 (antisense e[5mC]*eT*eG*eG*eA*d[5mC]*dT*dG*d[5mC]*dT*dT*d[5mC]*dT*d[5mC]*dA*eT*eG*e[5mC]*eT*eG) [compound 547498]”, the “% inhibition” value under setting [8] worked out at 44%.
As to “546283 (antisense eT*e[5mC]*eT*e[5mC]*eA*dA*dA*dG*dA*dG*dT*dA*dA*d[5mC]*d[5mC]*eA*eG*eA*eG*e[5mC]) [compound 546283]”, the “% inhibition” value under setting [4] was 88%.
In the case of “546837 (eT*eA*eT*eA*eA*d[5mC]*dT*d[5mC]*dT*dA*dA*d[5mC]*dA*dG*dT*eA*eT*e[5mC]*eA*e[5mC]; antisense) [compound 546837]”, the “% inhibition” value under setting [1] was 0%.
Turning to “547697 (antisense eT*e[5mC]*eA*e[5mC]*eT*dG*dT*d[5mC]*d[5mC]*dT*dA*dT*dA*dA*d[5mC]*eT*eA*eT*eT*eA) [compound 547697]”, the “% inhibition” value under setting [6] was determined as 63%.
In the case of “547485 (antisense e[5mC]*eA*eA*eA*e[5mC]*dT*dA*dA*dG*dG*dG*dA*d[5mC]*d[5mC]*dA*e[5mC]*e[5mC]*eT*eG*eA) [compound 547485]”, the “% inhibition” value runs as follows: under setting [9], 49%; under setting [10], 66%.
As to “547628 (antisense e[5mC]*eT*e[5mC]*eT*eA*d[5mC]*d[5mC]*dT*dA*dT*dA*dA*d[5mC]*dT*d[5mC]*eT*eA*eA*e[5mC]*eA) [compound 547628]”, under setting [3], the “% inhibition” value is listed as 34%.
For the substance “546331 (antisense eT*eT*e[5mC]*eA*e[5mC]*d[5mC]*dT*dT*dT*d[5mC]*dT*d[5mC]*d[5mC]*dT*dT*e[5mC]*eG*eA*eG*eA) [compound 546331]”, the “% inhibition” value under setting [9] was 59% and the “% inhibition” value under setting [10] worked out at 44%.
For “546160 (eA*e[5mC]*eT*eG*eA*dA*dT*dA*dG*d[5mC]*dA*dA*dA*d[5mC]*dA*e[5mC]*e[5mC]*eT*eT*eG; antisense) [compound 546160]”, the “% inhibition” value under setting [2] is given as 78%.
On to “546220 (antisense eT*eA*eG*eG*eT*dG*d[5mC]*dA*dG*dA*dT*dG*dG*dT*d[5mC]*e[5mC]*eG*eA*e[5mC]*eA) [compound 546220]”, for which the “% inhibition” value (Table 7, HepaRG cells, electroporation with 5,000 nM antisense oligonucleotide, approx. 24 hours, PKK mRNA by RT-PCR (RTS3454), relative to untreated control cells) is reported as 71%.
As for “547459 (antisense eG*eA*eG*eT*eT*dT*dT*dA*dT*d[5mC]*dA*dA*dG*dG*d[5mC]*eG*eA*eT*eA*eT) [compound 547459]”, the “% inhibition” value is 28% under setting [9] and 51% under setting [10].
For the substance “546210 (antisense e[5mC]*e[5mC]*eA*eA*eT*dT*dT*d[5mC]*dT*dG*dA*dA*dA*dG*dG*eG*e[5mC]*eA*e[5mC]*eA) [compound 546210]”, the “% inhibition” value under setting [11] is given as 79%.
As for “546392 (eG*eA*e[5mC]*e[5mC]*eT*d[5mC]*dG*d[5mC]*dA*dT*dT*dG*dT*d[5mC]*dA*eG*e[5mC]*e[5mC]*e[5mC]*e[5mC]; antisense) [compound 546392]”, the “% inhibition” value under setting [8] worked out at 72%.
With “547686 (antisense e[5mC]*eT*eG*eT*e[5mC]*d[5mC]*dT*dA*dT*dA*dA*d[5mC]*dT*dA*dT*eA*eT*e[5mC]*eA*e[5mC]) [compound 547686]”, the “% inhibition” value under setting [6] is given as 36%.
As to “546695 (eG*eG*eG*eA*e[5mC]*dA*dA*dT*d[5mC]*dT*d[5mC]*d[5mC]*dA*d[5mC]*d[5mC]*e[5mC]*e[5mC]*e[5mC]*eG*eA; antisense) [compound 546695]”, the “% inhibition” value under setting [7] was 36%.
For the substance “547522 (antisense eG*eA*eA*eA*eG*d[5mC]*dG*dG*dG*d[5mC]*dT*dT*d[5mC]*dA*dG*e[5mC]*e[5mC]*eA*eG*eA) [compound 547522]”, the “% inhibition” value under setting [8] was 73%.
As to “547336 (antisense eT*eT*eT*eA*eT*dA*dA*dA*dT*dG*dT*d[5mC]*dT*d[5mC]*dG*eA*eT*eG*eG*e[5mC]) [compound 547336]”, the “% inhibition” value under setting [11] came to 81%.
Regarding “546789 (eG*e[5mC]*eT*eT*e[5mC]*dT*d[5mC]*dT*dA*dT*d[5mC]*dT*d[5mC]*d[5mC]*d[5mC]*eA*eG*eT*eG*eT; antisense) [compound 546789]”, the “% inhibition” value under setting [1] is 79%.
Same read-out and setting: the figure for “546843 (eT*eA*eT*e[5mC]*eA*d[5mC]*dT*dG*dT*d[5mC]*d[5mC]*dT*dA*dT*dA*eA*e[5mC]*eT*e[5mC]*eT; antisense) [compound 546843]” is 52%; for “546811 (eT*eG*eG*eA*e[5mC]*dA*dT*d[5mC]*d[5mC]*dT*dT*d[5mC]*d[5mC]*d[5mC]*d[5mC]*eT*e[5mC]*eG*e[5mC]*eA; antisense) [compound 546811]” it is 49%.
Regarding “547530 (antisense eA*e[5mC]*eA*eA*e[5mC]*dA*d[5mC]*dA*d[5mC]*dA*dG*dT*d[5mC]*dA*dT*eG*eG*eA*eG*eA) [compound 547530]”, under setting [7], the “% inhibition” value is given as 63%.
Take “547748 (eG*eG*eT*eT*eG*dG*dT*dG*dG*d[5mC]*dG*dG*dG*dA*dT*e[5mC]*eG*eG*eT*eG; antisense) [compound 547748]”: under setting [12], the “% inhibition” value is on record as 78%.
“546303 (antisense eT*eT*eT*eG*eT*dG*dA*dG*dA*dA*dA*dG*dG*dT*dG*eT*eA*eT*e[5mC]*eT) [compound 546303]”: the “% inhibition” value under setting [4] is 77%.
Turning to “546144 (e[5mC]*eA*e[5mC]*eA*eG*dG*dA*dA*dA*d[5mC]*dT*dG*dT*dA*dG*e[5mC]*eA*eA*eA*e[5mC]; antisense) [compound 546144]”, under setting [2], the “% inhibition” value was found to be 75%.
In the case of “547537 (antisense e[5mC]*e[5mC]*eT*eG*eT*dG*d[5mC]*dA*dT*dA*dG*dA*d[5mC]*d[5mC]*d[5mC]*e[5mC]*eA*eA*e[5mC]*eA) [compound 547537]”, the “% inhibition” value under setting [7] stood at 65%.
As for “547020 (eG*eG*eA*eT*e[5mC]*dG*dG*dT*dG*dG*dT*dG*dG*dG*dA*eT*eT*eG*eG*eT; antisense) [compound 547020]”, the “% inhibition” value under setting [12] stood at 47%.
Take “546150 (e[5mC]*eA*eT*e[5mC]*e[5mC]*d[5mC]*d[5mC]*dA*d[5mC]*d[5mC]*dT*d[5mC]*dT*dG*dA*eA*eG*eA*eA*eG; antisense) [compound 546150]”: the “% inhibition” value under setting [2] came to 58%.
“547330 (antisense e[5mC]*eT*eT*eA*eT*dT*dT*dG*dA*dT*dG*dA*d[5mC]*d[5mC]*dA*e[5mC]*eA*eT*eT*eG) [compound 547330]”: the “% inhibition” value under setting [11] turned out to be 60%.
As for “547415 (eT*e[5mC]*eT*eG*eG*dG*dA*dG*dT*dA*dA*dA*dG*dA*dA*eT*eA*eA*eG*eT; antisense) [compound 547415]”, the “% inhibition” value under setting [4] was 71%.
On to “548774 (antisense e[5mC]*e[5mC]*eT*eA*dT*dA*dA*d[5mC]*dT*dA*dT*dA*dA*e[5mC]*eA*eG*eT) [compound 548774]”, for which the “% inhibition” value under setting [5] is listed as 0%.
In the case of “548759 (antisense eA*eA*e[5mC]*eA*dG*dT*dA*dT*d[5mC]*dA*d[5mC]*dT*dG*eT*eA*e[5mC]*eT) [compound 548759]”, the “% inhibition” value under setting [5] worked out at 68%.
